In patent publication US8846750B2, “Pharmaceutical and food compositions for preventing or treating diabetes or obesity” (Korea Ocean Research and Development Institute, priority 2010, dated 2014):

Molecular target: T1, PTP-1b (Homo sapiens, UniProt P18031)
T1 construct: purchased Bioneer, Korea
T1 sequence (P18031 1-435): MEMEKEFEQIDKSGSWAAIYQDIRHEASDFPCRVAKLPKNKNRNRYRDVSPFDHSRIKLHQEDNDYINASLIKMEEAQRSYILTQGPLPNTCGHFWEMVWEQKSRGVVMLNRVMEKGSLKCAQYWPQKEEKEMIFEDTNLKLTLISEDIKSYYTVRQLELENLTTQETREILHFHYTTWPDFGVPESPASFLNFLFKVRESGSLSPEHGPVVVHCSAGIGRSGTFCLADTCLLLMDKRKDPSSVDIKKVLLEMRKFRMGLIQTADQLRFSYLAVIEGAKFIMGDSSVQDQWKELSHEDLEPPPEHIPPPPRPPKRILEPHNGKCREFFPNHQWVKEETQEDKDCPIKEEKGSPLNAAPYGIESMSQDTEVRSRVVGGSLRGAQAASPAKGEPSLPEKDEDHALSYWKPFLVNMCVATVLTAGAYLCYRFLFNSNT
Assay: PTP-1b inhibitory activity of lobaric acid (control), pNPP assay
Type: biochemical
Details: read-out: IC50 against PTP-1b
Description: Meanwhile, the PTP-1b inhibitory activity of lobaric acid as a control was measured. PTP-1b used in the test was purchased from BIOMOL (USA). In order to spectroscopically measure the activity of the enzyme, about 0.2 μg/Ml of PTP-1b, PTP-1b buffer (50 mM citrate, pH 6.0, 0.1M NaCl, 1 mM EDTA, 1 mM DTT), lobaric acid, 4 mM pNPP were mixed, shaken lightly, and then reacted at 37° C. for 30 minutes, after which the absorbance at 405 nm was measured.

IC50: 870 nM
Compound: CCCCCc1c2c(cc(O)c1C(=O)O)OC(=O)c1c(cc(OC)cc1C(=O)CCCC)O2 [lobaric acid]
